The text below walks through data of ChEMBL document CHEMBL6074659, “Development of an Intravenously Stable Disulfide-Rich Peptide for the Treatment of Chemotherapy-Induced Neuropathic Pain” (J Med Chem, 2024).

Series [1] has as its target T1, Neuronal acetylcholine receptor; alpha9/alpha10 (Homo sapiens) (UniProt Q9UGM1+Q9GZZ6). Briefly: Antagonist activity at human alpha9alpha10 nAChR expressed in acetylcholine-induced Xenopus laevis oocytes assessed as inhibition of acetylcholine-induced current at 10 nM at -80 mV holding potential incubated for 5 mins by two electrode voltage-clamp assay. Conditions: Oocyte, filed as antagonist. It is filed as cell-based.

In series [2] the target is T1, Neuronal acetylcholine receptor; alpha9/alpha10 (Homo sapiens). Briefly: Antagonist activity at human alpha9alpha10 nAChR expressed in acetylcholine-induced Xenopus laevis oocytes assessed as inhibition of acetylcholine-induced current at 10 nM at -80 mV holding potential incubated for 5 mins by two electrode voltage-clamp assay relative to control. It is filed as cell-based. Conditions: Oocyte. Background: In two-electrode clamp one electrode senses voltage and the other passes current.

A short description of series [3]: Stability in human serum assessed as parent compound remaining incubated at 24 hrs by RP-HPLC analysis. Conditions: for remaining at 24 h: human serum, read-out: Stability. It is filed as ADME, cell-free.
The nature of series [4]: Stability in human serum assessed as parent compound remaining incubated measured upto 48 hrs by RP-HPLC analysis. It is filed as ADME, cell-free.
For series [5], the target named is Neuronal acetylcholine receptor; alpha9/alpha10 (Homo sapiens, UniProt Q9GZZ6+Q9UGM1). Briefly: Antagonist activity at human alpha9alpha10 nAChR expressed in acetylcholine-induced Xenopus laevis oocytes assessed as inhibition of acetylcholine-induced current at -80 mV holding potential incubated for 5 mins by two electrode voltage-clamp assay. It is filed as cell-based, Oocyte.
Neuronal acetylcholine receptor; alpha9/alpha10, sequence (Q9UGM1 whole entry): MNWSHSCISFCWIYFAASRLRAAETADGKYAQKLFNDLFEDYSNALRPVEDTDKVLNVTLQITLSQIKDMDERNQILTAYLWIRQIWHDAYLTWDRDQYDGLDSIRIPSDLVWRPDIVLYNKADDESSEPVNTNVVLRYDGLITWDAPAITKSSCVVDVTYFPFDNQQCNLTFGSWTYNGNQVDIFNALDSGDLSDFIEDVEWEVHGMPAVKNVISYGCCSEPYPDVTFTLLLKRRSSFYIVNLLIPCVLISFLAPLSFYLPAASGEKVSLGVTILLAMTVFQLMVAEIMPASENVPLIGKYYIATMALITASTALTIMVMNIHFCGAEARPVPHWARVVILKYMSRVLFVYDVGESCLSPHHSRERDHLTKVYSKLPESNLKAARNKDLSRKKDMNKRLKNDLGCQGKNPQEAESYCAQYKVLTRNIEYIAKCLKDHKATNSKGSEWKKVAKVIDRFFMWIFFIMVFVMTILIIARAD
Neuronal acetylcholine receptor; alpha9/alpha10, sequence (Q9GZZ6 whole entry): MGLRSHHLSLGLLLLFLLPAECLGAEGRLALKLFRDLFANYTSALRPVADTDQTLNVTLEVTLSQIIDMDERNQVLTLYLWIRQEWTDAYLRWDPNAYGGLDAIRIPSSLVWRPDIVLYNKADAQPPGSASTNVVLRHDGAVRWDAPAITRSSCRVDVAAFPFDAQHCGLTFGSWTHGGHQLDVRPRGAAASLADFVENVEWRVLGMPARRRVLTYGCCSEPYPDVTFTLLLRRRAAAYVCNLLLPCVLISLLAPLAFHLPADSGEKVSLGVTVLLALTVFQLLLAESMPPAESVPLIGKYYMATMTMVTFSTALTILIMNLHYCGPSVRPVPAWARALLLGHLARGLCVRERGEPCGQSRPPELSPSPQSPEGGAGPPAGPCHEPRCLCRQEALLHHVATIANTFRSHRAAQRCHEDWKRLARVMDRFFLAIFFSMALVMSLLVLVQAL

Calls of active or inactive are those of the source. The rule behind the calls is not given here. Starred links: 1 amine or outer side, 2 acyl side, 3 side chain; linkers in the order of their positions; H or OH if unused. Positions of bridges follow the written chain, without caps; N, C: chain ends. Non-standard residues stand in square brackets, D forms with d. Residues, ends and D or L forms follow the SMILES beside them. Dap = NC[C@H](N)C(=O)O; CH2 = C([*:1])[*:2] Bounds are passed on as bounds.

`CC[C@H](C)[C@@H]1NC(=O)[C@H](CC(=O)O)NC(=O)[C@@H]2CCCN2C(=O)[C@H](CC(N)=O)NC(=O)[C@H](CC(N)=O)NC(=O)[C@H](C(C)C)NC(=O)[C@H](CO)NC(=O)[C@@H]2CSCSC[C@H](NC(=O)CN)C(=O)N[C@@H](CSCSC[C@@H](C(N)=O)NC1=O)C(=O)N[C@@H](CN)C(=O)N[C@@H](Cc1cnc[nH]1)C(=O)N1CCC[C@H]1C(=O)N[C@@H](C)C(=O)N2` (H-GCC[Dap]HPACSVNNPDIC-NH2; linker 2-8, 3-16 via CH2): in series [1], the outcome was Active.

`CC[C@H](C)[C@@H]1NC(=O)[C@H](CC(=O)O)NC(=O)[C@@H]2CCCN2C(=O)[C@H](CC(N)=O)NC(=O)[C@H](CC(N)=O)NC(=O)[C@H](C(C)C)NC(=O)[C@H](CO)NC(=O)[C@@H]2CSSC[C@@H]3NC(=O)CNC(=O)[C@H](CCC(=O)O)NC(=O)CNC(=O)[C@H](CCC(=O)O)NC(=O)CNC(=O)[C@H](CCC(=O)O)NC(=O)CNC(=O)[C@H](CSSC[C@H](NC3=O)C(=O)N[C@@H](CN)C(=O)N[C@@H](Cc3cnc[nH]3)C(=O)N3CCC[C@H]3C(=O)N[C@@H](C)C(=O)N2)NC1=O` (HELM PEPTIDE1{A.C.S.V.N.N.P.D.I.C.G.E.G.E.G.E.G.C.C.[NC[C@H](N[*:1])C(=O)[*:2]].H.P}$PEPTIDE1,PEPTIDE1,2:R3-18:R3|PEPTIDE1,PEPTIDE1,10:R3-19:R3|PEPTIDE1,PEPTIDE1,1:R1-22:R2$$$V2.0): the inhibition in series [2] came to 20%. Besides, the remaining at 24 h in series [3] came to 57.3%.

With `CC[C@H](C)[C@@H]1NC(=O)[C@H](CC(=O)O)NC(=O)[C@@H]2CCCN2C(=O)[C@H](CC(N)=O)NC(=O)[C@H](CC(N)=O)NC(=O)[C@H](C(C)C)NC(=O)[C@H](CO)NC(=O)[C@@H]2CSSC[C@@H]3NC(=O)CNC(=O)[C@@H](N)CC(=O)NCC[C@@H](C(N)=O)NC(=O)[C@H](CSSC[C@H](NC3=O)C(=O)N[C@@H](CN)C(=O)N[C@@H](Cc3cnc[nH]3)C(=O)N3CCC[C@H]3C(=O)N[C@@H](C)C(=O)N2)NC1=O` (HELM PEPTIDE1{D.G.C.C.[NC[C@H](N[*:1])C(=O)[*:2]].H.P.A.C.S.V.N.N.P.D.I.C.[Dab].[am]}$PEPTIDE1,PEPTIDE1,1:R3-18:R3|PEPTIDE1,PEPTIDE1,3:R3-9:R3|PEPTIDE1,PEPTIDE1,4:R3-17:R3$$$V2.0), the Stability entry in series [4] is recorded as “Stable”. In series [2] (filed as antagonist), the inhibition is 90%. The IC50 in series [5] was determined as 3.3 nM. Also, in series [3], the remaining at 24 h was determined as 64.6%.

`CC[C@H](C)[C@@H]1NC(=O)[C@H](CC(=O)O)NC(=O)[C@@H]2CCCN2C(=O)[C@H](CC(N)=O)NC(=O)[C@H](CC(N)=O)NC(=O)[C@H](C(C)C)NC(=O)[C@H](CO)NC(=O)[C@@H]2CSSC[C@@H]3NC(=O)CNC(=O)[C@@H](N)CC(=O)NC[C@@H](C(N)=O)NC(=O)[C@H](CSSC[C@H](NC3=O)C(=O)N[C@@H](CN)C(=O)N[C@@H](Cc3cnc[nH]3)C(=O)N3CCC[C@H]3C(=O)N[C@@H](C)C(=O)N2)NC1=O` (HELM PEPTIDE1{D.G.C.C.[NC[C@H](N[*:1])C(=O)[*:2]].H.P.A.C.S.V.N.N.P.D.I.C.[O=C([C@H](CN[*:3])N[*:1])[*:2]].[am]}$PEPTIDE1,PEPTIDE1,1:R3-18:R3|PEPTIDE1,PEPTIDE1,3:R3-9:R3|PEPTIDE1,PEPTIDE1,4:R3-17:R3$$$V2.0): the Stability entry in series [4] is “Stable”; in series [3] (serum, 24 h), 72.4%. The inhibition in series [2] (filed as antagonist) came out at 90%. For the same molecule, the IC50 in series [5] was determined as 3.2 nM. For the same molecule, the remaining at 24 h in series [3] stood at 57.3%.

Take `CC[C@H](C)[C@@H]1NC(=O)[C@H](CC(=O)O)NC(=O)[C@@H]2CCCN2C(=O)[C@H](CC(N)=O)NC(=O)[C@H](CC(N)=O)NC(=O)[C@H](C(C)C)NC(=O)[C@H](CO)NC(=O)[C@@H]2CSCSC[C@H](NC(=O)CN)C(=O)N[C@@H](CSSC[C@@H](C(N)=O)NC1=O)C(=O)N[C@@H](CN)C(=O)N[C@@H](Cc1cnc[nH]1)C(=O)N1CCC[C@H]1C(=O)N[C@@H](C)C(=O)N2` (HELM PEPTIDE1{G.C.C.[NC[C@H](N[*:1])C(=O)[*:2]].H.P.A.C.S.V.N.N.P.D.I.C.[am]}|CHEM1{[C([*:1])[*:2]]}$PEPTIDE1,CHEM1,2:R3-1:R1|PEPTIDE1,CHEM1,8:R3-1:R2|PEPTIDE1,PEPTIDE1,3:R3-16:R3$$$V2.0): the outcome in series [1] was Active.

With `CC.CC[C@H](C)[C@@H]1NC(=O)[C@H](CC(=O)O)NC(=O)[C@@H]2CCCN2C(=O)[C@H](CC(N)=O)NC(=O)[C@H](CC(N)=O)NC(=O)[C@H](C(C)C)NC(=O)[C@H](CO)NC(=O)[C@@H]2CSSC[C@H](NC(=O)CN)C(=O)N[C@@H](CSCSC[C@@H](C(N)=O)NC1=O)C(=O)N[C@@H](CN)C(=O)N[C@@H](Cc1cnc[nH]1)C(=O)N1CCC[C@H]1C(=O)N[C@@H](C)C(=O)N2` (HELM PEPTIDE1{G.C.C.[NC[C@H](N[*:1])C(=O)[*:2]].H.P.A.C.S.V.N.N.P.D.I.C.[am]}|CHEM1{[C([*:1])[*:2]]}$PEPTIDE1,PEPTIDE1,2:R3-8:R3|PEPTIDE1,CHEM1,3:R3-1:R1|PEPTIDE1,CHEM1,16:R3-1:R2$$$V2.0), in series [1], the result was Active.

On to `CC[C@H](C)[C@@H]1NC(=O)[C@H](CC(=O)O)NC(=O)[C@@H]2CCCN2C(=O)[C@H](CC(N)=O)NC(=O)[C@H](CC(N)=O)NC(=O)[C@H](C(C)C)NC(=O)[C@H](CO)NC(=O)[C@@H]2CSSC[C@H](NC(=O)CN)C(=O)N[C@@H](CNC(=O)C[C@@H](C(N)=O)NC1=O)C(=O)N[C@@H](CN)C(=O)N[C@@H](Cc1cnc[nH]1)C(=O)N1CCC[C@H]1C(=O)N[C@@H](C)C(=O)N2` (HELM PEPTIDE1{G.C.[O=C([C@H](CN[*:3])N[*:1])[*:2]].[NC[C@H](N[*:1])C(=O)[*:2]].H.P.A.C.S.V.N.N.P.D.I.D.[am]}$PEPTIDE1,PEPTIDE1,2:R3-8:R3|PEPTIDE1,PEPTIDE1,3:R3-16:R3$$$V2.0), for which, in series [2], the inhibition is below 5%. For the same molecule, the remaining at 24 h in series [3] was determined as 57.3%.

Regarding `CC[C@H](C)[C@@H]1NC(=O)[C@H](CC(=O)O)NC(=O)[C@@H]2CCCN2C(=O)[C@H](CC(N)=O)NC(=O)[C@H](CC(N)=O)NC(=O)[C@H](C(C)C)NC(=O)[C@H](CO)NC(=O)[C@@H]2CSSC[C@@H]3NC(=O)CNC(=O)[C@@H](N)CCCCNC(=O)CC[C@@H](C(N)=O)NC(=O)[C@H](CSSC[C@H](NC3=O)C(=O)N[C@@H](CN)C(=O)N[C@@H](Cc3cnc[nH]3)C(=O)N3CCC[C@H]3C(=O)N[C@@H](C)C(=O)N2)NC1=O` (HELM PEPTIDE1{K.G.C.C.[NC[C@H](N[*:1])C(=O)[*:2]].H.P.A.C.S.V.N.N.P.D.I.C.E.[am]}$PEPTIDE1,PEPTIDE1,1:R3-18:R3|PEPTIDE1,PEPTIDE1,3:R3-9:R3|PEPTIDE1,PEPTIDE1,4:R3-17:R3$$$V2.0), in series [2], the inhibition is below 40%. The remaining at 24 h in series [3] amounted to 57.3%.

For the molecule `CC[C@H](C)[C@@H]1NC(=O)[C@H](CC(=O)O)NC(=O)[C@@H]2CCCN2C(=O)[C@H](CC(N)=O)NC(=O)[C@H](CC(N)=O)NC(=O)[C@H](C(C)C)NC(=O)[C@H](CO)NC(=O)[C@@H]2CSSC[C@@H]3NC(=O)CNC(=O)[C@@H](N)CNC(=O)C[C@@H](C(N)=O)NC(=O)[C@H](CSSC[C@H](NC3=O)C(=O)N[C@@H](CN)C(=O)N[C@@H](Cc3cnc[nH]3)C(=O)N3CCC[C@H]3C(=O)N[C@@H](C)C(=O)N2)NC1=O` (HELM PEPTIDE1{[N[C@@H](CN[*:3])C(=O)[*:2]].G.C.C.[NC[C@H](N[*:1])C(=O)[*:2]].H.P.A.C.S.V.N.N.P.D.I.C.D.[am]}$PEPTIDE1,PEPTIDE1,1:R3-18:R3|PEPTIDE1,PEPTIDE1,3:R3-9:R3|PEPTIDE1,PEPTIDE1,4:R3-17:R3$$$V2.0), the inhibition in series [2] is below 5%. Further, the remaining at 24 h in series [3] was found to be 57.3%.

Turning to `CC[C@H](C)[C@@H]1NC(=O)[C@H](CC(=O)O)NC(=O)[C@@H]2CCCN2C(=O)[C@H](CC(N)=O)NC(=O)[C@H](CC(N)=O)NC(=O)[C@H](C(C)C)NC(=O)[C@H](CO)NC(=O)[C@@H]2CSSC[C@@H]3NC(=O)CNC(=O)[C@@H](N)CNC(=O)CC[C@@H](C(N)=O)NC(=O)[C@H](CSSC[C@H](NC3=O)C(=O)N[C@@H](CN)C(=O)N[C@@H](Cc3cnc[nH]3)C(=O)N3CCC[C@H]3C(=O)N[C@@H](C)C(=O)N2)NC1=O` (HELM PEPTIDE1{[N[C@@H](CN[*:3])C(=O)[*:2]].G.C.C.[NC[C@H](N[*:1])C(=O)[*:2]].H.P.A.C.S.V.N.N.P.D.I.C.E.[am]}$PEPTIDE1,PEPTIDE1,1:R3-18:R3|PEPTIDE1,PEPTIDE1,3:R3-9:R3|PEPTIDE1,PEPTIDE1,4:R3-17:R3$$$V2.0), the inhibition in series [2] is below 5%. In addition, the remaining at 24 h in series [3] came to 57.3%.

Turning to `CC[C@H](C)[C@@H]1NC(=O)[C@H](CC(=O)O)NC(=O)[C@@H]2CCCN2C(=O)[C@H](CC(N)=O)NC(=O)[C@H](CC(N)=O)NC(=O)[C@H](C(C)C)NC(=O)[C@H](CO)NC(=O)[C@@H]2CSSC[C@@H]3NC(=O)CNC(=O)[C@H](CN)NC(=O)CNC(=O)[C@H](CN)NC(=O)CNC(=O)[C@H](CN)NC(=O)CNC(=O)[C@H](CSSC[C@H](NC3=O)C(=O)N[C@@H](CN)C(=O)N[C@@H](Cc3cnc[nH]3)C(=O)N3CCC[C@H]3C(=O)N[C@@H](C)C(=O)N2)NC1=O` (cyclo(ACSVNNPDICG[Dap]G[Dap]G[Dap]GCC[Dap]HP); disulfide 2-18, 10-19), in series [1], the result was Active. In addition, the remaining at 24 h in series [3] is 85.2%.

As a reminder, the inhibition is the drop in the measured response relative to a control, in per cent. Broadly, the IC50 is the concentration needed to halve the response being measured.
